From patent US11149031B2, “Substituted N-(3-fluoropropyl)-pyrrolidine compounds, processes for their preparation and therapeutic uses thereof” (SANOFI, priority 2016, dated 2021) come the findings set out here.

Molecules are shown by their SMILES. pIC50: −log10 of the molar value. Read-outs that look alike come from different tables or passages of the source.

Experiment [1] addresses ERα in MCF7 cells (Homo sapiens (Human), UniProt P03372). The experiment is described as follows: Test C: estrogen receptor degradation activity, ERα in cell western assay in MCF7 cells. The experiment is classed as cell-based. The settings on record: for DC50: 4 hours post compound addition, ERα in cell western, read-out: Degradation IC50; for % Degradation at 3 μM: 4 hours, relative to fulvestrant. In a few lines:
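In-cell western: ERα level (green) against DNA stain Syto-64 (red) by integrated intensity. MCF7 cells in hormone-depleted medium exposed 4 h to compound at 3-0.000018 μM final (1:5 series); fulvestrant 0.1 μM as positive control.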

Experiment [2] deals with His6-ERα298-554 D538G mutant (ERα ligand-binding domain) (Homo sapiens (Human), UniProt P03372, D538G). The experiment is described as follows: Test A: biochemical antagonist activity, LanthaScreen TR-FRET ERα coactivator assay, D538G mutant. The conditions noted are these: read-out: Antagonism D538G IC50. In a few lines: (§1)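 Compounds were added to receptor LBD (0.5 nM), terbium-labelled His6 antibody (0.5 nM), PGC1a coactivator peptide (250 nM) and estradiol at 3 nM or 10 nM. After incubating overnight at room temperature, the 520:495 nm ratio gave IC50 values by four-parameter logistic regression.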

Experiment [3] relates to MCF7 cells expressing mutant estrogen receptor Tyr 537 Ser. Kind of experiment: Test B: cell proliferation/viability assay (CellTiter-Glo) on MCF7 Tyr 537 Ser mutant. The experiment is classed as cell-based. The conditions noted are these: Homo sapiens, MCF7, 168 h, MCF7 cells expressing ER Tyr 537 Ser mutant, 7 days of compound exposure, read-out: proliferation MCF7 Y537S IC50. In a few lines: (§2)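 Seven-day compound exposure, 9 concentrations from 3 to 0.000001 μM, in phenol red-free medium with 5% charcoal-stripped serum. ER Tyr537Ser and Asp538Gly lines derive from transfected MCF7 selected to grow without estradiol. Viability from CellTiter-Glo luminescence, background-corrected, as percent of untreated.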

Experiment [4] concerns MCF7 cells expressing mutant estrogen receptor Asp 538 Gly. Kind of experiment: Test B: cell proliferation/viability assay (CellTiter-Glo) on MCF7 Asp 538 Gly mutant. The experiment is classed as cell-based. The conditions noted are these: Homo sapiens, MCF7, 168 h, MCF7 cells expressing ER Asp 538 Gly mutant, 7 days of compound exposure, read-out: proliferation MCF7 D538G IC50. The procedure, abridged: as §2
(In general: ATP-based viability assays read luminescence as a measure of living cells.)

The target in experiment [5] is His6-ERα298-554 Y537S mutant (ERα ligand-binding domain) (Homo sapiens (Human), UniProt P03372, Y537S). The experiment is described as follows: Test A: biochemical antagonist activity, LanthaScreen TR-FRET ERα coactivator assay, Y537S mutant. The settings on record: read-out: Antagonism Y537S IC50. The procedure, abridged:
as §1
(In general: TR-FRET usually uses a lanthanide donor and a delayed reading to cut background.)

The target in experiment [6] is His6-ERα298-554 WT (ERα ligand-binding domain) (Homo sapiens (Human), UniProt P03372). Kind of experiment: Test A: biochemical antagonist activity, LanthaScreen TR-FRET ERα coactivator assay, WT. The settings on record: read-out: Antagonism WT IC50. In a few lines:
as §1

Experiment [7] relates to MCF7 cells (breast tumor cells) WT. Kind of experiment: Test B: cell proliferation/viability assay (CellTiter-Glo) on MCF7 WT. The conditions noted are these: Homo sapiens, MCF7, 168 h, 7 days of compound exposure. The format is cell-based. The procedure, abridged: as §2
Where [8] appears, read: asterisk (*): protocol using 10 nM estradiol.

Chain of His6-ERα298-554 D538G mutant (ERα ligand-binding domain) (P03372 298-554 D538G): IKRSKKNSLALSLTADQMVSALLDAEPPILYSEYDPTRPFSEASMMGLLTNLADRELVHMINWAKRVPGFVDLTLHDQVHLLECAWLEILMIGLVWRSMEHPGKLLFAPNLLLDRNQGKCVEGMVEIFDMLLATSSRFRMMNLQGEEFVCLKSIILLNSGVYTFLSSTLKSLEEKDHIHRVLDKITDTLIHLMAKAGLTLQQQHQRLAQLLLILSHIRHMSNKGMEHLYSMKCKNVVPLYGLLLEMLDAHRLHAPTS
Chain of His6-ERα298-554 Y537S mutant (ERα ligand-binding domain) (P03372 298-554 Y537S): as the sequence (P03372 298-554 D538G) above, with Y240S, G241D counted along it
Chain of ERα in MCF7 cells (P03372 whole entry): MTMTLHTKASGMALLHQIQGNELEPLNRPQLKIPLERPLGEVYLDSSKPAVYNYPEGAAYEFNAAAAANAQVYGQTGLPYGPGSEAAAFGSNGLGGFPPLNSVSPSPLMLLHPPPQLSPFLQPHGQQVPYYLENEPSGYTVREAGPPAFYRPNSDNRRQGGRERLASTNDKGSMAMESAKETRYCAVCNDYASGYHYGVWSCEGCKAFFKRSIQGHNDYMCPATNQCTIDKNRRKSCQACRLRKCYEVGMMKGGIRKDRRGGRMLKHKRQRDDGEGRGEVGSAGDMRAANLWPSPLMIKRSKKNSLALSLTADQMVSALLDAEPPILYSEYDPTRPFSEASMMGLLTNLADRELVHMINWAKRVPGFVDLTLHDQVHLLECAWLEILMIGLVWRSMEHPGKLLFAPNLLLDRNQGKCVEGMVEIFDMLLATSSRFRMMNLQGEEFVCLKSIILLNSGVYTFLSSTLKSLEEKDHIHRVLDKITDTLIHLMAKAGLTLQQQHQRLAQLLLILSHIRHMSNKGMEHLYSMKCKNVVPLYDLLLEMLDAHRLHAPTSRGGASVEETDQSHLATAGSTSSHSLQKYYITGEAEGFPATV
Chain of His6-ERα298-554 WT (ERα ligand-binding domain) (P03372 298-554): as the sequence (P03372 298-554 D538G) above, with G241D counted along it

For `Cc1ccc(C2=C(c3cnc(O[C@H]4CCN(CCCF)C4)nc3)c3ccc(O)cc3SC2)c(F)c1` [Example 77, 3-(2-fluoro-4-methyl-phenyl)-4-[2-[(3S)-1-(3-fluoropropyl)pyrrolidin-3-yl]oxypyrimidin-5-yl]-2H-thiochromen-7-ol], the DC50 in experiment [1] stood at 1 nM. The “% Degradation at 3 μM” value in experiment [1] was determined as 91%. The pIC50 in experiment [2] (setting [8]) is 6.49; in experiment [3], 7.54; in experiment [4], 8.30; in experiment [5] (setting [8]), 6.71; in experiment [6] (setting [8]), 7.80; in experiment [7], 8.70.

Turning to `Cc1ccc(C2=C(c3ccc(O[C@H]4CCN(CCCF)C4)nc3)c3ccc(O)cc3SC2)c(F)c1` [Example 78, 3-(2-fluoro-4-methyl-phenyl)-4-[6-[(3S)-1-(3-fluoropropyl)pyrrolidin-3-yl]oxy-3-pyridyl]-2H-thiochromen-7-ol], the DC50 in experiment [1] stood at 0.2 nM. Moreover, the “% Degradation at 3 μM” value in experiment [1] was determined as 88%. The pIC50 in experiment [2] (setting [8]) is 7.54; in experiment [3], 8.40; in experiment [4] it was 9.05; in experiment [5] (setting [8]), 7.82; in experiment [6] (setting [8]) it was 9.00; in experiment [7], 9.52.

Consider `CCOc1ccc(C2=C(c3ccc(O[C@H]4CCN(CCCF)C4)nc3)c3ccc(O)cc3SC2)c(F)n1` [Example 79, 3-(6-ethoxy-2-fluoro-3-pyridyl)-4-[6-[(3S)-1-(3-fluoropropyl)pyrrolidin-3-yl]oxy-3-pyridyl]-2H-thiochromen-7-ol], for which the DC50 in experiment [1] was found to be 0.2 nM. Moreover, the “% Degradation at 3 μM” value in experiment [1] is 89%. The pIC50 was 8.22 in experiment [2] (setting [8]); 9.10 in experiment [3]; 8.30 in experiment [4]; 8.30 in experiment [5] (setting [8]); 9.30 in experiment [6] (setting [8]); 9.52 in experiment [7].

As to `Oc1ccc2c(c1)SCC(c1ccc(OC(F)(F)F)cc1)=C2c1ccc(O[C@H]2CCN(CCCF)C2)nc1` [Example 80, 4-[6-[(3S)-1-(3-fluoropropyl)pyrrolidin-3-yl]oxy-3-pyridyl]-3-[4-(trifluoromethoxy)phenyl]-2H-thiochromen-7-ol], the DC50 in experiment [1] worked out at 0.2 nM. In addition, in experiment [1], the “% Degradation at 3 μM” value is 89%. For the same compound, the pIC50 in experiment [2] (setting [8]) was 6.55; in experiment [3], 8.52; in experiment [4], 9.40; in experiment [5] (setting [8]), 6.81; in experiment [6] (setting [8]), 7.92; in experiment [7], 9.52.

For `Oc1ccc2c(c1)OCC(c1ccc(Cl)cc1Cl)=C2c1ccc(O[C@H]2CCN(CCCF)C2)cc1` [Example 81, 3-(2,4-dichlorophenyl)-4-[4-[(3S)-1-(3-fluoropropyl)pyrrolidin-3-yl]oxyphenyl]-2H-chromen-7-ol], the DC50 in experiment [1] is 7 nM. Moreover, in experiment [1], the “% Degradation at 3 μM” value is reported as 77%. For the same compound, the pIC50 in experiment [2] (setting [8]) was under 5.40; in experiment [3], 7.77; in experiment [4], 8.46; in experiment [5] (setting [8]) it was under 5.40; in experiment [6] (setting [8]) it was 6.28; in experiment [7] it was 7.74.

Take `Oc1ccc2c(c1)OCC(c1ccc(F)cc1Cl)=C2c1ccc(O[C@H]2CCN(CCCF)C2)cc1` [Example 82, 3-(2-chloro-4-fluoro-phenyl)-4-[4-[(3S)-1-(3-fluoropropyl)pyrrolidin-3-yl]oxyphenyl]-2H-chromen-7-ol]: in experiment [1], the DC50 is 7 nM. Besides, the “% Degradation at 3 μM” value in experiment [1] was determined as 86%. Further, the pIC50 in experiment [2] (setting [8]) is under 5.40; in experiment [3], 7.74; in experiment [4], 9.00; in experiment [5] (setting [8]), 5.64; in experiment [6] (setting [8]), 6.53; in experiment [7], 7.82.

Consider `Oc1ccc(C2=C(c3ccc(O[C@H]4CCN(CCCF)C4)cc3)c3ccc(O)cc3OC2)cc1` [Example 83, 4-[4-[(3S)-1-(3-fluoropropyl)pyrrolidin-3-yl]oxyphenyl]-3-(4-hydroxyphenyl)-2H-chromen-7-ol], for which, in experiment [1], the DC50 turned out to be 2 nM. Moreover, in experiment [1], the “% Degradation at 3 μM” value turned out to be 75%. The pIC50 in experiment [2] (protocol with 3 nM estradiol) was 5.88; in experiment [3], 7.74; in experiment [4] it was 7.89; in experiment [5] (protocol with 3 nM estradiol) it was 5.93; in experiment [6] (protocol with 3 nM estradiol), 7.09; in experiment [7] it was 8.70.

For `Oc1ccc2c(c1)C(c1ccc(N[C@H]3CCN(CCCF)C3)cc1)=C(c1ccc(F)cc1Cl)CC2` [Example 84, 7-(2-chloro-4-fluoro-phenyl)-8-[4-[[(3S)-1-(3-fluoropropyl)pyrrolidin-3-yl]amino]phenyl]-5,6-dihydronaphthalen-2-ol], in experiment [1], the DC50 amounted to 2 nM. In addition, the “% Degradation at 3 μM” value in experiment [1] was 78%. In addition, the pIC50 in experiment [2] (protocol with 3 nM estradiol) is 5.76; in experiment [3], 8.22; in experiment [4], 8.70; in experiment [5] (protocol with 3 nM estradiol), 6.02; in experiment [6] (protocol with 3 nM estradiol), 7.52; in experiment [7], 9.40.

Consider `Oc1ccc2c(c1)CCCC(c1ccc(Cl)cc1Cl)=C2c1ccc(N[C@H]2CCN(CCCF)C2)cc1` [Example 85, 6-(2,4-dichlorophenyl)-5-[4-[[(3S)-1-(3-fluoropropyl)pyrrolidin-3-yl]amino]phenyl]-8,9-dihydro-7H-benzo[7]annulen-2-ol], for which the DC50 in experiment [1] was determined as 1 nM. For the same compound, the “% Degradation at 3 μM” value in experiment [1] came out at 86%. Also, the pIC50 in experiment [2] (setting [8]) is 7.68; in experiment [3], 8.15; in experiment [4] it was 9.15; in experiment [5] (setting [8]) it was 7.82; in experiment [6] (setting [8]) it was 9.00; in experiment [7], 9.40.

As to `CCOc1ccc(C2=C(c3ccc(N[C@H]4CCN(CCCF)C4)cc3)c3ccc(O)cc3CCC2)c(F)n1` [Example 86, 6-(6-ethoxy-2-fluoro-3-pyridyl)-5-[4-[[(3S)-1-(3-fluoropropyl)pyrrolidin-3-yl]amino]phenyl]-8,9-dihydro-7H-benzo[7]annulen-2-ol], the DC50 in experiment [1] is 0.5 nM. In addition, the “% Degradation at 3 μM” value in experiment [1] is listed as 95%. For the same compound, the pIC50 was 8.15 in experiment [2] (setting [8]); 9.00 in experiment [3]; 9.70 in experiment [4]; 8.30 in experiment [5] (setting [8]); 9.30 in experiment [6] (setting [8]); 9.70 in experiment [7].

In the case of `Oc1ccc2c(c1)CCCC(c1ccc(OC(F)(F)F)cc1)=C2c1ccc(N[C@H]2CCN(CCCF)C2)cc1` [Example 87, 5-[4-[[(3S)-1-(3-fluoropropyl)pyrrolidin-3-yl]amino]phenyl]-6-[4-(trifluoromethoxy)phenyl]-8,9-dihydro-7H-benzo[7]annulen-2-ol], the DC50 in experiment [1] was found to be 0.4 nM. The “% Degradation at 3 μM” value in experiment [1] was found to be 83%. For the same compound, the pIC50 was 6.25 in experiment [2] (setting [8]); 8.52 in experiment [3]; 9.00 in experiment [4]; 6.53 in experiment [5] (setting [8]); 7.64 in experiment [6] (setting [8]); 9.70 in experiment [7].

As to `Oc1ccc2c(c1)CCCC(c1ccc(OC(F)(F)F)cc1F)=C2c1ccc(N[C@H]2CCN(CCCF)C2)cc1` [Example 88, 5-[4-[[(3S)-1-(3-fluoropropyl)pyrrolidin-3-yl]amino]phenyl]-6-[2-fluoro-4-(trifluoromethoxy)phenyl]-8,9-dihydro-7H-benzo[7]annulen-2-ol], the DC50 in experiment [1] stood at 0.2 nM. Also, the “% Degradation at 3 μM” value in experiment [1] amounted to 88%. For the same compound, the pIC50 in experiment [2] (setting [8]) is 6.53; in experiment [3], 8.52; in experiment [4], 9.22; in experiment [5] (setting [8]), 6.80; in experiment [6] (setting [8]) it was 7.92; in experiment [7], 9.52.
